Literature values as cited in patent US10610591B2, “Light responsive quantum dot drug delivery system” (Nanoco Technologies Ltd., priority 2017, dated 2020).

What was measured:
[1] = pH 7.4
[2] = not given; remark: listed apart in the source

## CC1=C(CC(=O)O)c2cc(F)ccc2/C1=C\c1ccc([S+](C)[O-])cc1 (centres unmarked) [sulindac]
neutral
  log P^N (neutral): 3.60
[1]
  log D7.4: 0.12

## CC(C)(C#N)c1cc(Cn2cncn2)cc(C(C)(C)C#N)c1 [anastrozole, alpha,alpha,alpha′,alpha′-tetramethyl-5-(1H,1,2,4-triazol-1-ylmethyl)-m-benzenediacetonitrile]
octanol/water
  log P (log Po/w, log Poct/wat, log Pexp): 2.4

## 7-Ethyl-10-hydroxycamptothecin
[2]; DMSO
  solubility in DMSO: 2000 µg/mL
[2]; water
  solubility in water: essentially insoluble in water
